Assay results from patent publication US4337252A, “1-Phenyl-4-morpholino-1-buten-3-01 derivatives, compositions and use” (Univablot, priority 1980, dated 1982).

Assays:
[1] = Toxicity: LD50 in mice by the intraperitoneal route (log-probits method of Miller and Tainter); conditions: mouse, in vivo
Experimental: The LD50 of the products was measured in mice by the intraperitoneal route according to the "log-probits" method of Miller and Tainter (Proc. Soc. Exptl. Biol. Med. 1944; 57, 261-264).

[2] = tested on: reserpine-induced blepharospasm; assay: Reserpine antagonism (blepharospasm); format: in vivo, Male, Swiss strain mice; conditions: mice, IP, 1/10 of LD50, 30 min before reserpine 5 mg/kg IP; class symbols
Experimental: 3. Reserpine antagonism (blepharospasm) (Chen G., and Bohner B., (1961) J. Pharmacol. Exptl. Therap. 131, 179).
Reserpine administered to mice in a dosage of 5 mg/kg intraperitoneally subsequently causes the eyelids to drop more or less completely in the majority of the animals. The administration of certain products inhibits the blepharospasm produced by reserpine.
Male, Swiss strain mice are distributed into groups of 10 and each experiment comprises at least 3 groups:
a control group that receives only the solvent and reserpine
a group treated with a reference product: we chose imipramine
a treated group that receives the product being tested in a dosage of 1/10 of the LD50.
The products being tested are administered intraperitoneally 30 minutes before the intraperitoneal injection of reserpine in a dosage of 5 mg/kg, so as to study their activity as a function of time.
The degree of ptosis for each eye and for each animal is observed every 30 minutes for 4 to 5 hours, according to RUBIN's scoring system (RUBIN et al., J. Pharm. Exp. Therap. 1957, 120, 125-136). The activity of the product is determined by comparing the result obtained with the treated control group. The inhibition of blepharospasm is recorded from 0 to +++.

## COc1ccc(C=CC(O)CN2CCOCC2)cc1 (stereo not drawn) [Example 1, 1-(p-methoxyphenyl)-4-morpholino-1-buten-3-ol]
[1]; mice, IP
  LD50: 500 mg/kg
[2]
  Blepharospasm (inhibition of reserpine-induced blepharospasm): +++ (inhibition >45%)

## OC(C=Cc1ccc(Cl)cc1)CN1CCOCC1 (stereo not drawn) [Example 2]
[1]; ip
  LD50: 400 mg/kg
[2]
  Blepharospasm (inhibition of reserpine-induced blepharospasm): +++ (inhibition >45%)

## OC(C=Cc1ccc(F)cc1)CN1CCOCC1 (stereo not drawn) [Example 3]
[1]; ip
  LD50: 800 mg/kg
[2]
  Blepharospasm (inhibition of reserpine-induced blepharospasm): ++ (inhibition 26-45%)

## Oc1ccc(C=CC(O)CN2CCOCC2)cc1 (stereo not drawn) [Example 4]
[1]; ip
  LD50: 650 mg/kg
[2]
  Blepharospasm (inhibition of reserpine-induced blepharospasm): ++ (inhibition 26-45%)

## C#CCOc1ccc(C=CC(O)CN2CCOCC2)cc1 (stereo not drawn) [Example 5]
[1]; ip
  LD50: 400 mg/kg
[2]
  Blepharospasm (inhibition of reserpine-induced blepharospasm): ++ (inhibition 26-45%)

## C=CCOc1ccc(C=CC(O)CN2CCOCC2)cc1 (stereo not drawn) [Example 6]
[1]; ip
  LD50: 300 mg/kg
[2]
  Blepharospasm (inhibition of reserpine-induced blepharospasm): ++ (inhibition 26-45%)
